From BindingDB's records for doi:10.1016/j.chembiol.2010.01.008 (University of Washington, 2010) come the findings set out here.

What all share (conditions): pH 7.5
In assay [1] the target is Serine/threonine-protein kinase PAK 5 (Homo sapiens) (UniProt Q9P286). The experiment in a line: In vitro activity assay using various kinases.
In assay [2] the target is Tyrosine-protein kinase ABL1 (Homo sapiens, UniProt P00519). Nature of the assay: In Vitro Activity Assay. The text has this:
(§1) In vitro activity assay using various kinases.

Assay [3] concerns the target T1, Mitogen-activated protein kinase kinase kinase 5 (Homo sapiens, UniProt Q99683).
T1 sequence (Q99683 whole entry): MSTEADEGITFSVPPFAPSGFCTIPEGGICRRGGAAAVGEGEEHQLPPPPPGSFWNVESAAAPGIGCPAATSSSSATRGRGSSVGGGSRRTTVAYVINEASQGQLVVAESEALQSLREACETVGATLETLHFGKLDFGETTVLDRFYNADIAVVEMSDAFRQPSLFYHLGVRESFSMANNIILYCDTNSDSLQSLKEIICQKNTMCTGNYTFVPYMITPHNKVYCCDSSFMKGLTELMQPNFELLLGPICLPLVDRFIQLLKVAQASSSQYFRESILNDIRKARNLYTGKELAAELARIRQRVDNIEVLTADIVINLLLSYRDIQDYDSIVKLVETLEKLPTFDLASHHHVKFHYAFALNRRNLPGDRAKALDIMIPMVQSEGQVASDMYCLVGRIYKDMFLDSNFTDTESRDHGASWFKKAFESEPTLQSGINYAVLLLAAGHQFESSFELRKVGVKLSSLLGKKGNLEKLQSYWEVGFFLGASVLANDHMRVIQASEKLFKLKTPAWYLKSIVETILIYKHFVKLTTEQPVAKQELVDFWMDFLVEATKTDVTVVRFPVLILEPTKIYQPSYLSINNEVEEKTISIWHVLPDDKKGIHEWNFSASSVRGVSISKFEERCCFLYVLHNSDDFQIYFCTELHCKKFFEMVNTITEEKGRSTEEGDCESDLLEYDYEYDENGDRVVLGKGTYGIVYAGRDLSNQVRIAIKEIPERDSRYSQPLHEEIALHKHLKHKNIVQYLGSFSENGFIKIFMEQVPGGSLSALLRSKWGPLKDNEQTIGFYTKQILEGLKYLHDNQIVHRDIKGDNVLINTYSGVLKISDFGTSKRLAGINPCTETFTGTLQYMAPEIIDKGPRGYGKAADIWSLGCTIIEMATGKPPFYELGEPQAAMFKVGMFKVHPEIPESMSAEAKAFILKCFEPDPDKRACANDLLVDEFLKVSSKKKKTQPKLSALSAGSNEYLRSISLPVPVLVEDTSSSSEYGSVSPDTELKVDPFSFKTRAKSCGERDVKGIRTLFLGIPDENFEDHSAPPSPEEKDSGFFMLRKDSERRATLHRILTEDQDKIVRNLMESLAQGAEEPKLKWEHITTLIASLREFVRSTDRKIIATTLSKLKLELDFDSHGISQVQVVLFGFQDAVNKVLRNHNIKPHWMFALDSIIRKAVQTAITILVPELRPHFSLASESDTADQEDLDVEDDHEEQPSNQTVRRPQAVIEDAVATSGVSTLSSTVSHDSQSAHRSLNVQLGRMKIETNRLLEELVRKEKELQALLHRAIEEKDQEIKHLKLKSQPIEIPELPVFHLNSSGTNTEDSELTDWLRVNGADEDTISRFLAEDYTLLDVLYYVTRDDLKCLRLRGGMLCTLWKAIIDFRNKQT
Nature of the assay: In Vitro Activity Assay.
Excerpt: as §1

The target in assay [4] is Serine/threonine-protein kinase PAK 4 (Homo sapiens, UniProt O96013). The experiment in a line: In Vitro Activity Assay.
Sequence of Serine/threonine-protein kinase PAK 4 (O96013 whole entry): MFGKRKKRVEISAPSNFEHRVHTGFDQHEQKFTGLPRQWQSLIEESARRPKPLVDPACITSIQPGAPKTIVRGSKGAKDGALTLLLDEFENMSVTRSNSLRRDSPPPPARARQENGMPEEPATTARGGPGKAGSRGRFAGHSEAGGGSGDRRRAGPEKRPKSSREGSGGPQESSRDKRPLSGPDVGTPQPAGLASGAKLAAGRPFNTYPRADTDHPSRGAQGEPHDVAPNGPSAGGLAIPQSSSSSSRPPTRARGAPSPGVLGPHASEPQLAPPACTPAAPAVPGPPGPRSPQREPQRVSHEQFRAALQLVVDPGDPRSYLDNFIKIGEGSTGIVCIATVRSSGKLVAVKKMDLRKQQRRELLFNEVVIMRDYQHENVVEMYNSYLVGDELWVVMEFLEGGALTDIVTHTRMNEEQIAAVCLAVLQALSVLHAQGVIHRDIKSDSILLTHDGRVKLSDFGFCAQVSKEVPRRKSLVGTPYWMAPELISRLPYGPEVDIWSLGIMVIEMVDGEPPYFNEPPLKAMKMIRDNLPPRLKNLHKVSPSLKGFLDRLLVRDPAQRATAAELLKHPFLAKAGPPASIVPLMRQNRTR
Excerpt: as §1

For assay [5], the target named is Mitogen-activated protein kinase 14 (Homo sapiens, UniProt Q16539). Nature of the assay: In Vitro Activity Assay.
Sequence of Mitogen-activated protein kinase 14 (Q16539 whole entry): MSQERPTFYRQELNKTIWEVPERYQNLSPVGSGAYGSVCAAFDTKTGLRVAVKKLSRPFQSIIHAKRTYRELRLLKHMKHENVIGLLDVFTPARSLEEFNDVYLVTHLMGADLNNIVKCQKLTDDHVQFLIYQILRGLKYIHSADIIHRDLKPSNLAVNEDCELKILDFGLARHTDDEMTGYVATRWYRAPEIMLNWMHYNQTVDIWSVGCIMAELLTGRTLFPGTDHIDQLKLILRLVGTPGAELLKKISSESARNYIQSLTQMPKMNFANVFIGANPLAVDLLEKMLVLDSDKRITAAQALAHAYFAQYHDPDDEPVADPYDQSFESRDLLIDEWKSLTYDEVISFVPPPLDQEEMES
Excerpt: as §1

Assay [6] has as its target Proto-oncogene tyrosine-protein kinase Src (Gallus gallus, UniProt P00523). The experiment in a line: In Vitro Activity Assay.
Excerpt: as §1

In assay [7] the target is Tyrosine-protein kinase Lck (Homo sapiens, UniProt P06239). Nature of the assay: In Vitro Activity Assay.
Sequence of Tyrosine-protein kinase Lck (P06239 whole entry): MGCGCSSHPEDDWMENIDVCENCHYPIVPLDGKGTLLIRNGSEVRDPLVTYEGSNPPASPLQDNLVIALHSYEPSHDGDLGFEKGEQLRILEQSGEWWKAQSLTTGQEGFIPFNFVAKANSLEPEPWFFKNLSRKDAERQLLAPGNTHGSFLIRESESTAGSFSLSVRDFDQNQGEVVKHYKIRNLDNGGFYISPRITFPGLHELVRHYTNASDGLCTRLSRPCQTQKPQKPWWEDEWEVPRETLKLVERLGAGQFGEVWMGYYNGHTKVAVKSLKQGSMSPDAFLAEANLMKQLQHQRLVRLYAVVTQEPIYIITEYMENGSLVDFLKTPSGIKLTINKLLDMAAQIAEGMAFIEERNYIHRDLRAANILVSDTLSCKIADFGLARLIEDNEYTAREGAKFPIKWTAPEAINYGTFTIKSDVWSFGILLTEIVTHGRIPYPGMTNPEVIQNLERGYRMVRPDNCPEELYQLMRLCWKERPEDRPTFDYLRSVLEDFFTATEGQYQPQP
Excerpt: as §1

Assay [8] deals with Dual specificity protein kinase CLK1 (Homo sapiens, UniProt P49759). Nature of the assay: In Vitro Activity Assay.
Sequence of Dual specificity protein kinase CLK1 (P49759 whole entry): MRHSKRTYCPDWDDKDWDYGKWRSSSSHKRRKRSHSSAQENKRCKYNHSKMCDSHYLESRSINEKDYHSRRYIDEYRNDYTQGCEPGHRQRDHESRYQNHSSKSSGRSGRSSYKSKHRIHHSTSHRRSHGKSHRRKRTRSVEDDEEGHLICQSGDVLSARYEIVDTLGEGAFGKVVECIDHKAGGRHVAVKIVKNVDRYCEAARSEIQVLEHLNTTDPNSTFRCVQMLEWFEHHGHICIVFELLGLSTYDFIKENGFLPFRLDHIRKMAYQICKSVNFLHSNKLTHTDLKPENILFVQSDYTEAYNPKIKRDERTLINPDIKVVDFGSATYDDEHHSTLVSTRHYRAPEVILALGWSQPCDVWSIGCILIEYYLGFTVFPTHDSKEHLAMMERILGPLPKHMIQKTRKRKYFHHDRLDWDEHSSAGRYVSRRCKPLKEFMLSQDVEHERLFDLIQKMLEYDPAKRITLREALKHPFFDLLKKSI
Excerpt: as §1

Assay [9] addresses Tyrosine-protein kinase CSK (Homo sapiens, UniProt P41240). The experiment in a line: In Vitro Activity Assay.
Excerpt: as §1

Assay [10] addresses T2, Interleukin-1 receptor-associated kinase 4 (Homo sapiens, UniProt Q9NWZ3).
T2 sequence (Q9NWZ3 whole entry): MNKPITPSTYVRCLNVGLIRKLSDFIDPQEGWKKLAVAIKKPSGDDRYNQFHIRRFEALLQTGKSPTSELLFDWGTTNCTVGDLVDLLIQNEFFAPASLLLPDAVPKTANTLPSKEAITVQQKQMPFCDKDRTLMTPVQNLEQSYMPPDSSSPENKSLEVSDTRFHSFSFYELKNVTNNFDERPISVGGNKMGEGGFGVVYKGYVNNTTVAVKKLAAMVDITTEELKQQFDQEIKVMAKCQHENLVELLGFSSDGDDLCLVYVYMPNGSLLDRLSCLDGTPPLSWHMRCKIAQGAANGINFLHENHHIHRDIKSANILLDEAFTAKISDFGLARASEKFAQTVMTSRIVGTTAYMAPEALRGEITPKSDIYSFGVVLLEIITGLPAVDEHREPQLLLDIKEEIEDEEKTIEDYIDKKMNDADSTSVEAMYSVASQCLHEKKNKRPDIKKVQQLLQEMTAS
The experiment in a line: In Vitro Activity Assay.
Excerpt: as §1

Assay [11] has as its target cAMP-dependent protein kinase catalytic subunit alpha (Homo sapiens, UniProt P17612). The experiment in a line: In Vitro Activity Assay.
Excerpt: as §1

Assay [12] concerns the target Tyrosine-protein kinase HCK (Homo sapiens, UniProt P08631). Nature of the assay: In Vitro Activity Assay.
Excerpt: as §1

Assay [13] deals with Mitogen-activated protein kinase 1 (Homo sapiens, UniProt P28482). Nature of the assay: In Vitro Activity Assay.
Excerpt: as §1

The target in assay [14] is T3, Ephrin type-A receptor 3 [1-975] (Homo sapiens, UniProt P29320).
T3 construct: 1-975
T3 sequence (P29320 whole entry): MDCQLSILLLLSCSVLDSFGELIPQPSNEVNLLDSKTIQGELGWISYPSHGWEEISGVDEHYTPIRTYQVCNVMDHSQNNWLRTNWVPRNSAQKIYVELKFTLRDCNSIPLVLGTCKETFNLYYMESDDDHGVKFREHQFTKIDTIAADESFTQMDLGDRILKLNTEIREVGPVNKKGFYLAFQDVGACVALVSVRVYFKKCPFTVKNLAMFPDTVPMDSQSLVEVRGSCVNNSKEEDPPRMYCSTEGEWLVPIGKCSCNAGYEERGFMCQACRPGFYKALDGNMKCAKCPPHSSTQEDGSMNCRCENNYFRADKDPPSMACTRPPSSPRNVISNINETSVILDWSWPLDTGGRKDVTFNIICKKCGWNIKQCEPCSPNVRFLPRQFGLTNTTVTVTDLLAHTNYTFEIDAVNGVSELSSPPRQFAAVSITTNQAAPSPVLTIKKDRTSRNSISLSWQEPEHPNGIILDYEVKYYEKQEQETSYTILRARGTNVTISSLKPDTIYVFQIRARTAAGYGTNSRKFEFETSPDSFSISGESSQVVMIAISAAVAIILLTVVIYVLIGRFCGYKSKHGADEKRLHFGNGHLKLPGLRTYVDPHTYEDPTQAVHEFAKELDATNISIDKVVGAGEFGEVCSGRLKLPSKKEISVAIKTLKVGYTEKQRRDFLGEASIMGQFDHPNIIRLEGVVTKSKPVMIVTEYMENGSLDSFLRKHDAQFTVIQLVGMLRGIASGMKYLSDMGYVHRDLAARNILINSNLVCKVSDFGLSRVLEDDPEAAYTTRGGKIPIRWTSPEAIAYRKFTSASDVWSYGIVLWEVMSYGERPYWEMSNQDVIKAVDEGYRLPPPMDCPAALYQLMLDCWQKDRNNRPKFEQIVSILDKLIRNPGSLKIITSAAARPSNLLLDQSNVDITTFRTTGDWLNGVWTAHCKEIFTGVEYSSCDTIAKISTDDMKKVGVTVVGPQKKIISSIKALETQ
The experiment in a line: In Vitro Activity Assay.
Excerpt: as §1

Assay [15] concerns the target T4, Tyrosine-protein kinase ABL1 [1-999,Y253H] (Homo sapiens, UniProt P00519, Y253H).
T4 construct: 1-999
The experiment in a line: In Vitro Activity Assay.
Excerpt: as §1

For assay [16], the target named is T5, Tyrosine-protein kinase ABL1 [1-999,E255V] (Homo sapiens, UniProt P00519, E255V).
T5 construct: 1-999
Nature of the assay: In Vitro Activity Assay.
Excerpt: as §1

Values joined by “and” are separate entries in the source; they are usually repeats but may differ in a detail not shown here. Equal values may be shown once. Where only a bound is given, the exact number is not on record here.

Sequence of Tyrosine-protein kinase HCK (P08631 whole entry): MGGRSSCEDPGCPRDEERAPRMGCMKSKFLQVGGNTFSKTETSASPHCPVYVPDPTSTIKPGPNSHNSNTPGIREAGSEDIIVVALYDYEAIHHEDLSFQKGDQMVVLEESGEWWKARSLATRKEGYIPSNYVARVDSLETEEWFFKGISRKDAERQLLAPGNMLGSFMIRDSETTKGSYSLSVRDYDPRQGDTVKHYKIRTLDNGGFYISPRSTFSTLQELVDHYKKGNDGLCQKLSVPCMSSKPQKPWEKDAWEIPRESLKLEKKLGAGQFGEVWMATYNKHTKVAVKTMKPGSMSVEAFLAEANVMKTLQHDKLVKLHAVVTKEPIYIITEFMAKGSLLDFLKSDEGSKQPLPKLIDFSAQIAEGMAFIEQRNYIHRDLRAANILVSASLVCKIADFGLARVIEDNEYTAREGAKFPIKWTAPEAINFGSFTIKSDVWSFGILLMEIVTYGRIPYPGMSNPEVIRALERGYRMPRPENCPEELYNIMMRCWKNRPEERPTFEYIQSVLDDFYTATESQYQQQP
Sequence of Tyrosine-protein kinase CSK (P41240 whole entry): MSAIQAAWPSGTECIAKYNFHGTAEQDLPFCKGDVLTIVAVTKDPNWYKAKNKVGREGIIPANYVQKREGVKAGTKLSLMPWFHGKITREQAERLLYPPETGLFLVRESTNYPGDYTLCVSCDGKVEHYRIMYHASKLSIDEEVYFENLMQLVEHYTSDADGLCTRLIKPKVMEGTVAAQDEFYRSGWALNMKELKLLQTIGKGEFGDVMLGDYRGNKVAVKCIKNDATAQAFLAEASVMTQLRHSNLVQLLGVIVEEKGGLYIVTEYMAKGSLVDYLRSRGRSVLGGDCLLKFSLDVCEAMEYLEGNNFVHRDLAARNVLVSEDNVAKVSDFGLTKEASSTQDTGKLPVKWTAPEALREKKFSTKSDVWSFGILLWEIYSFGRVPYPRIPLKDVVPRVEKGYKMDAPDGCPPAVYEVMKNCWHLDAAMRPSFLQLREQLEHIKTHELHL
Sequence of Serine/threonine-protein kinase PAK 5 (Homo sapiens) (Q9P286 whole entry, looked up): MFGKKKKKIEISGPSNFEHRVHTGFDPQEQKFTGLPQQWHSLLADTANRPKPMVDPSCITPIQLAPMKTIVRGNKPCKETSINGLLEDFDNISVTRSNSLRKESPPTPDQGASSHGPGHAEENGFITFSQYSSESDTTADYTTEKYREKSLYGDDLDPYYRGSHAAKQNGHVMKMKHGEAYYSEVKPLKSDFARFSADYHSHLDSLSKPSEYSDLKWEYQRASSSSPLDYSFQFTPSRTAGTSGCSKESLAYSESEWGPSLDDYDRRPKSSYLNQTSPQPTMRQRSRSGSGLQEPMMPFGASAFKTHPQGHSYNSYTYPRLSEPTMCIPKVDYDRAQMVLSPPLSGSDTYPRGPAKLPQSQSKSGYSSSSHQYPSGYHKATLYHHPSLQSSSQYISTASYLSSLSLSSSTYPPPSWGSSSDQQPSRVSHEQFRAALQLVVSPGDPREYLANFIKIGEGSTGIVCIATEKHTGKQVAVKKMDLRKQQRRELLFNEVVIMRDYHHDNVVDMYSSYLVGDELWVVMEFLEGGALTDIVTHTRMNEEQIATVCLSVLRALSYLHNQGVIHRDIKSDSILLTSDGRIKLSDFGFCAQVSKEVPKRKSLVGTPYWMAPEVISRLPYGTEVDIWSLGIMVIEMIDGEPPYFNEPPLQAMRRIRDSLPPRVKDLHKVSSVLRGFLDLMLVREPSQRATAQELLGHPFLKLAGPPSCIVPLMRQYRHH
Sequence of Tyrosine-protein kinase ABL1 (P00519 whole entry): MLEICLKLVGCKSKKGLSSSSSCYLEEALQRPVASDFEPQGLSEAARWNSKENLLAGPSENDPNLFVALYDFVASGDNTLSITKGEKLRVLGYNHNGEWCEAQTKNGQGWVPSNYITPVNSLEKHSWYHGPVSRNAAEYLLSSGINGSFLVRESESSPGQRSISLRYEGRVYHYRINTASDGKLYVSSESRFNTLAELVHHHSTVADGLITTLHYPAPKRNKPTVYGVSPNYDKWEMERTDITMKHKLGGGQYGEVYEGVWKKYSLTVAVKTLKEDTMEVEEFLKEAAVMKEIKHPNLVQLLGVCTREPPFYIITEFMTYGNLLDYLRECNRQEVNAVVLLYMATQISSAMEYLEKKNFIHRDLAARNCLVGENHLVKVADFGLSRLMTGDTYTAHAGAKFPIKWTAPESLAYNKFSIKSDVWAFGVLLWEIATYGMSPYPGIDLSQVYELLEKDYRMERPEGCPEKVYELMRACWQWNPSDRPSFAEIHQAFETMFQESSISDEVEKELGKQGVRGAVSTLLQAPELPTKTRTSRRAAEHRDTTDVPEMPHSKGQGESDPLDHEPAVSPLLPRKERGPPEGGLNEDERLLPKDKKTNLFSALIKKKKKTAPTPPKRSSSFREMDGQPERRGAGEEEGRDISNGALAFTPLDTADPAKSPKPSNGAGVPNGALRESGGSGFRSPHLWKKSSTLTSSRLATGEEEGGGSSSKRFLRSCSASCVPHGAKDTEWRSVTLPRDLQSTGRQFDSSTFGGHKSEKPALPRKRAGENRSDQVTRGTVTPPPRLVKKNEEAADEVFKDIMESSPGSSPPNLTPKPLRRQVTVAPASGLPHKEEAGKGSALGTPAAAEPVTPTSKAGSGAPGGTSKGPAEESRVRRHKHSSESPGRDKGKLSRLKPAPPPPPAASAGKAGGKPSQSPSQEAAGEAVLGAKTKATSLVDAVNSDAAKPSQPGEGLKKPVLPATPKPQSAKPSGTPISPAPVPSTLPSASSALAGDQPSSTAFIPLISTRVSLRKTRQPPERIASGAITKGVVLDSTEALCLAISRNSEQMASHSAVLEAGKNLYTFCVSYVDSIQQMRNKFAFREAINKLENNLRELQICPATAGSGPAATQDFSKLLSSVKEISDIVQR

As to `Cc1ccc(NC(=O)c2cccc(C(F)(F)F)c2)cc1Nc1ncccc1-c1ncnc(Nc2ccc(OCCNC(=O)COCCOCCOCCOCCN)cc2)n1` [Amine compound, 12a], the half-inhibitory concentration (IC50) – broadly, the point on the concentration scale where inhibition reaches its midpoint – in assay [1] was > 10000 nM; in assay [2], 6.6 nM; in assay [3], > 10000 nM; in assay [4] it was > 10000 nM; in [5], < 13 nM; in assay [6] it was 3.3 nM. In addition, the IC50 was < 10 nM in [7]; > 10000 nM in assay [8]; 16.3 nM in assay [9]; > 10000 nM in assay [10]; > 10000 nM in assay [11]; 9.6 nM in assay [12]. In assay [13], the half-maximal inhibitory concentration (IC50) was > 10000 nM.

As to `Cc1ccc(NC(=O)c2cccc(C(F)(F)F)c2)cc1Nc1ncccc1-c1cc(Nc2ccc(OCCNC(=O)COCCOCCOCCOCCN)cc2)ncn1` [Amine compound, 13a], the IC50 is > 10000 nM in [1]; 6.6 nM in assay [2]; > 10000 nM in [3]; > 10000 nM in assay [4]; < 13 nM in assay [5]; 5.7 nM in assay [6]. In addition, the 50% inhibitory concentration (IC50) in assay [7] was < 10 nM; in assay [8], > 10000 nM; in [9], 140 nM; in assay [10], > 10000 nM; in [11], > 10000 nM; in [12] it was 6.3 nM. The half-inhibitory concentration (IC50) in [13] was > 10000 nM.

For the compound `Cc1ccc(NC(=O)c2cccc(C(F)(F)F)c2)cc1Nc1ncccc1-c1ncnc(Nc2ccc(OCCNC(=O)CCCCNC(=O)CCC3=[N+]4B(F)n5c(C)cc(C)c5C=C4C=C3)cc2)n1` [BODIPY-labeled probe, 4a], the equilibrium dissociation constant (Kd) (commonly the constant that tells how readily two partners part at equilibrium) in [1] was > 1000 nM; in assay [2] it was 9.9 nM; in assay [3] it was > 1000 nM; in [14], 27 nM; in [15], 9.4 nM; in assay [4], > 1000 nM. Further, the equilibrium dissociation constant (Kd) in assay [5] is 35 nM; in [6] it was 13 nM and 11 nM; in assay [7], 20 nM; in [8], > 1000 nM; in assay [9] it was 17 nM; in [12], 8.7 nM. This compound also came in with a dissociation constant Kd in [16] of 45 nM. In addition, the half-maximal inhibitory concentration (IC50) in assay [5] stood at 25.5 nM; in assay [6], 25.4 nM.
